Entries after “also recorded” stand apart in the source; their conditions may differ. Marks after values point to notes of the source that are not given here.
How the values were obtained:
Type in all cases: in vivo
[1] = system: AAV-A53T α-synuclein rat model; test: Beclin-1 protein expression in the SN; details: 2 wks after AAV-A53T vector injection; N=8/grp
Excerpt: The pathological phenotype of various storage disorders comprises increased α-Syn accumulation and aggregation and this increased α-Syn accumulation and aggregation has been linked to lysosomal dyfunction. Also, DA neuron degeneration induced by excess α-Syn in AAV-A53T rats is linked to a progressive decline in autophagic activity and in markers of lysosome function.

[2] = system: AAV-A53T α-synuclein rat model; test: Immunohistochemistry of Ser129-phosphorylated α-synuclein in the SN; details: delayed start GM1; 8 weeks after AAV-A53T; not quantified
[3] = system: AAV-A53T α-synuclein rat model; test: Insoluble pSer129 α-Syn immunofluorescence in SN after proteinase K; details: GM1 30 mg/kg/day i.p. for 2 wks, starting 24 hrs after AAV-A53T
Excerpt: However, GM1 administration may affect α-Syn phosphorylation and aggregation in vivo. Some studies have reported that in vitro, GM1 and α-Syn interact, resulting in an absence of fibril formation and an increase in helical folding propensity, resulting in GM1-mediated protection against aggregation. […] It was proposed herein that a mechanism that underlies the ability of GM1 to reduce α-Syn-related neurotoxicity is that GM1 administration reduces α-Syn phosphorylation and thus aggregation, and toxicity, in vivo. […] Beginning 24 hours after AAV administration, some animals received daily i.p. injections of saline and others received daily i.p. injections of GM1 (30 mg/kg). Animals were euthanized 2 weeks following initiation of saline or GM1 administration. Brains were subsequently sectioned and SN sections were treated with proteinase K and then processed for pSer129 α-Syn immunofluorescence.

[4] = system: AAV-A53T α-synuclein rat model; test: Stereological counting of TH+ and Nissl (cresyl violet) stained neurons in the SNc
Description: Institutional Animal Care and Use Committee and conducted in accordance with the National Institutes of Health Guide for the Care and Use of Laboratory Animals. Adult male Sprague-Dawley rats (Envigo), 250 to 300 g at the time of surgery, were housed three per cage with ad libitum access to food and water during a 12-hour light/dark cycle. All surgeries were performed under general anesthesia using a mixture of ketamine (100 mg/kg, i.p.) and xylazine (10 mg/kg, i.p.). Once animals were anesthetized, the head was shaved and surgically prepped with Betadine solution and alcohol before being placed in a Kopf stereotaxic frame with the incisor bar set at approximately 3.5 mm below horizontal zero to achieve a flat skull position. The skin on the top of the skull was cut along the midline and retracted. […] Following a 5 minute wait period after completion of the injection, the needle was slowly withdrawn, the skin wound was closed, and post-surgery analgesia (meloxicam 1 mg/kg) was administered. Some rats were randomly assigned to receive daily GM1 ganglioside (porcine brain derived GM1, 30 mg/kg, i.p., Qilu Pharmaceutical Co., Ltd.) or similar volume saline injections beginning 24 hours after AAV-A53T-synuclein surgery and lasting for 6 weeks (early start group). Other animals were randomly assigned to receive daily GM1 ganglioside (porcine brain derived GM1, 30 mg/kg, i.p., Qilu Pharmaceutical Co.) or similar volume saline injections beginning 3 weeks after AAV-A53T-synuclein surgery and lasting for 5 weeks (delayed start group). […] At the conclusion of the study, animals were euthanized, fresh brains were rapidly removed, and two to three striatal samples from both sides were dissected and immediately frozen for later analyses. The remainder of the brain (including the striatum beginning at the level of the decussation of the anterior commissure) was submersion fixed in 4% paraformaldehyde.
Fixed tissue blocks were immersed in 30% sucrose for cryoprotection and sectioned frozen on a sliding microtome (30 μm section thickness for striatal sections; 40 μm section thickness for SN sections). Sections through the rostro-caudal extent of the SN were collected and every sixth section from the SN was processed for tyrosine hydroxylase (TH) immunohistochemistry to be used for stereological cell counting. Three striatal sections from approximately the level of the decussation of the anterior commissure in each case were processed for α-synuclein immunohistochemistry. For immunohistochemistry, sections were washed and permeabilized with PBS containing 0.2% Triton X-100. Endogenous peroxidase activity was quenched using 3% hydrogen peroxide in PBS containing 0.2% Triton X-100. Sections were then blocked in PBS/triton X-100 containing 10% normal goat serum and 2% BSA, followed by primary antibody incubation (TH (rabbit anti-TH, 1:2,000, Pel-Freez); α-synuclein (mouse anti-α-synuclein clone 211; 1:2000, Millipore) overnight at 4° C. The following day, sections were washed in PBS and incubated in biotinylated secondary antibody (goat-anti-rabbit 1:4000 for TH; goat-anti-mouse 1:2000 for α-synuclein 1:2000, VECTOR Laboratories), followed by additional washes and incubation in avidin biotin complex (VECTASTAIN Elite ABC system, VECTOR Laboratories). The reaction product was visualized with 3,3′-diaminobenzidine (DAB) (Immpact DAB, VECTOR Laboratories). Sections were then mounted, dehydrated, cleared and coverslipped. Sections stained for visualization of TH and to be used for stereological cell counting were counterstained with cresyl violet prior to coverslipping. Stereological estimates of the numbers of TH and cresyl violet-stained neurons in the SNc on both sides of the brain were obtained using StereoInvestigator software (MBF Bioscience) and an Olympus BX-60 microscope equipped with a Ludl motorized stage. Slides were coded and analyzed blindly. […]

[5] = AAV-A53T/Delayed GM1, injected side
[6] = AAV-A53T/Delayed GM1, non-injected side
[7] = AAV-A53T/Early GM1, injected side
[8] = AAV-A53T/Early GM1, non-injected side

With GM1 ganglioside as the substance, how does the “SN Beclin-1 protein expression, GM1 vs saline” value [1] read?
Its value is “reversed increased SN Beclin-1 levels; also recorded: significantly increased in saline-treated vs. GM1-treated animals”.

And the “Ser129-phosphorylated α-synuclein staining in the SN, GM1 vs saline” value [2]?
The value was “less intense cytoplasmic Ser129-phosphorylated α-synuclein staining and fewer/smaller nuclear aggregates; also recorded: more Ser129 phosphorylated α-synuclein staining in saline-treated animals compared to GM1-treated animals”.

And the “insoluble pSer129 α-Syn-positive cells and pSer129 α-Syn per cell in the SN, GM1 vs saline” value [3]?
Its value is “significantly fewer pSer129 α-Syn-positive cells and less pSer129 α-Syn per cell; also recorded: fewer SN neurons expressing insoluble pSer129 and decreased pSer129 expression per neuron”.

What about the “Nissl+ Cells” value [4, 5] of the same substance?
Its value is 3335 ± 148^d.

What about the “TH+ Cells” value [4, 5] of the same substance?
Its value is 2814 ± 134^c.

And the “Nissl+ Cells” value [4, 6]?
The value was 6113 ± 132.

What about the “TH+ Cells” value [4, 6] of the same substance?
The value was 5685 ± 143.

And the “Nissl+ Cells” value [4, 7]?
Its value is 3557 ± 172^b.

What about the “TH+ Cells” value [4, 7] of the same substance?
The value was 3144 ± 159^a.

And the “Nissl+ Cells” value [4, 8]?
Its value is 6074 ± 174.

What about the “TH+ Cells” value [4, 8] of the same substance?
The value was 5601 ± 135.

What about the “loss of TH+ neurons compared to the contralateral side” value ([4]; delayed start GM1, 8 weeks) of the same substance?
Its value is 50.6±2.1%.

What about the “loss of cresyl violet-stained neurons compared to the contralateral side” value ([4]; delayed start GM1, 8 weeks) of the same substance?
The value was 45.5±2.1%.

What about the “loss of TH+ neurons compared to the non-injected side” value ([4]; early start GM1, 6 weeks) of the same substance?
Its value is 43.7±2.7%.

And the “loss of cresyl violet-stained neurons compared to the contralateral side” value ([4]; early start GM1, 6 weeks)?
Its value is 41.9±2.5%.

Source: US20220226357A1, “METHODS FOR TREATING NEURODEGENERATIVE DISORDERS” (THOMAS JEFFERSON UNIVERSITY, priority 2019, published 2022)
